In US20230338391A1, “TREATMENT FOR DEPRESSION” (TAKEDA PHARMACEUTICAL COMPANY LIMITED, priority 2020, published 2023):

Tests used:
in vivo = experiment: in vivo; design: species or system Sprague-Dawley rats; details: both sexes, Sprague-Dawley, rat, po
Experimental: (§1) An appropriate amount of methylcellulose (MC) was weighed and mixed with a small amount of warm water for injection. The mixture was then diluted with water for injection to make a 0.5% (w/v) MC solution. The vehicle was used for dosing in the control group. To make a 40 mg/mL suspension of COMPOUND A, an appropriate amount of the test article was weighed and mixed with the vehicle using a planetary centrifugal mixer and the mixture was then diluted with additional vehicle. The 40 mg/mL suspension was used to make 20 and 10 mg/mL suspensions by stepwise dilutions with the vehicle. The dosing suspensions were stored in a refrigerator (actual values: 3.7° C. to 6.1° C., acceptable range: 2° C. to 8° C.) under light-resistant conditions (tight container) and used within 8 days after preparation.
(§2) Males and females in good condition were selected for this study based on examinations within 4 days before the first dosing. Based on their body weights, animals were stratified and allocated randomly to 3 main study groups, each composed of 18 males and 18 females, and 2 satellite groups each composed of 9 males and 9 females for determination of plasma drug and metabolite concentrations. Surplus animals after animal selection were excluded from the study on the day after the animal selection or the day dosing commenced (Day 1).
(§3) The behavior of the high-dose main study and TK satellite groups was video-recorded continuously throughout the dosing period (until the morning on the day of necropsy) under non-GLP conditions. The video-recorded images were kept on a hard drive and were archived as study data. […]
(§4) Each animal was weighed pre-dose using electronic balances (PB3002-S; Mettler-Toledo K.K. and UX4200H; Shimadzu Corporation) on Days 1, 2, 4, 7, 11, and 14 during the dosing period. Body weights were also measured for all animals on the day of necropsy on Days 3, 8, and 15, and these terminal body weight values were also used for calculation of the amount of anesthesia. […]

Sprague-Dawley rats = experiment: in vivo; details: female, rat, 200 mg/kg/day, 14 days
Experimental: as §1, §2, §3, §4

Compound: CC1=CN2CCS(=O)(=O)N=C2C(c2ccc(OC3CCCCC3)cc2)=N1 [COMPOUND A, 9-[4-(Cyclohexyloxy)phenyl]-7-methyl-3,4-dihydropyrazino[2,1-c][1,2,4]thiadiazine 2,2-dioxide]
- NOAEL at 14 days (in vivo): 100 mg/kg/day
- cerebellar Purkinje cell histopathology (HE, Fluoro-Jade) (Sprague-Dawley rats): necrosis and/or Fluoro-Jade positive staining of Purkinje cells (dendrites, cell bodies, or axons) in 3 rats
- tonic convulsions (video recordings) (Sprague-Dawley rats): tonic convulsions in 2 rats
